ChEMBL document CHEMBL5543140 (J Med Chem, 2024)
Calls of active or inactive are those of the source. The calls are words filed in the database; no cut-off is given here.

What was measured:
Homo sapiens = species on record: Homo sapiens; test: Selectivity ratio, ratio of Ki for human 5-HT2B receptor to human 5-HT2A receptor
Hippocampus [1] = test: Induction of neuroplasticity in C57BL/6J mouse assessed as increase in c-Fos mRNA expression in brain hippocampus at 0.3 mg/kg, sc single dose by RT-PCR analysis; type: functional, organism-based
[2] = Tmax in beagle dog at 2 mg/kg, po measured upto 24 hrs; type: ADME, organism-based, Canis lupus familiaris; conditions: in vivo
[3] = target: T1, Alpha-2A adrenergic receptor (Homo sapiens, UniProt P08913); test: Agonist activity at human recombinant adrenergic alpha-2A receptor expressed in CHO-K1 cells co-transfected with 22F-Glosensor assessed as inhibition of cAMP production measured after 30 mins incubation by Microbeta2Micro-plate counter analysis; type: functional, cell-based
[4] = target: Muscarinic acetylcholine receptor M1 (Homo sapiens) (UniProt P11229); test: Displacement of [3H]-Pirenzepine from human muscarinic M1 expressed in CHO-K1 cells membrane at 10 uM incubated for 60 mins by microbeta liquid scintillation counting analysis; type: cell membranes; conditions: Cell membrane
Brain = test: Drug binding in male C57BL/6J mouse brain homogenate at 1 mg/kg, iv measured upto 8 hrs by LC-MS/MS analysis; type: ADME, organism-based; conditions: in vivo
[5] = Tmax in Wistar rat plasma at 1 mg/kg, iv measured upto 48 hrs; type: ADME, organism-based
[6] = target: T1, Alpha-2A adrenergic receptor; test: Displacement of [3H]-rauwolscine from human recombinant adrenergic alpha-2A receptor expressed in CHO-K1 cells incubated for 60 mins by […] analysis relative to control; type: cell-based
Hippocampus [7] = test: Induction of neuroplasticity in C57BL/6J mouse assessed as increase in EGR2 mRNA expression in brain hippocampus at 0.3 mg/kg, sc single dose by RT-PCR analysis; type: functional, organism-based
[8] = target: T2, 5-hydroxytryptamine receptor 7 (Homo sapiens, UniProt P34969); test: Displacement of [3H]LSD from 5-HT7 receptor (unknown origin) assessed as inhibition binding
[9] = Drug excretion in Wistar rat urine at 5 mg/kg, po measured upto 48 hrs; type: ADME, organism-based; conditions: read-out: Drug excretion
[10] = target: Alpha-2A adrenergic receptor (Homo sapiens) (UniProt P08913); test: Agonist activity at human recombinant adrenergic alpha-2A receptor expressed in CHO-K1 cells co-transfected with 22F-Glosensor assessed as maximal inhibition of cAMP production measured after 30 mins incubation by Microbeta2Micro-plate counter analysis relative to clonidine; type: functional, cell-based; conditions: filed as agonist
Mus musculus [11] = test: Psychedelic effect in C57BL/6J mouse assessed as induction of 5-HT2A receptor dependent head-twitch responses by visual observation at 1 to 10 mg/kg, po measured for 120 to 150 mins relative to DOI; type: functional, organism-based; conditions: dose 1-10 mg/kg, time lower […], time upper 150.0 min
[12] = Half life in beagle dog at 0.4 mg/kg, iv measured upto 24 hrs; type: ADME, organism-based, Canis lupus familiaris; conditions: in vivo
[13] = Half life in male Sprague-Dawley rat CSF at 1 mg/kg, iv measured upto 8 hrs by LC-MS/MS analysis; type: ADME, organism-based, Cerebrospinal fluid
[14] = Metabolic stability in mouse liver microsomes assessed as half life at 1 uM incubated for 120 mins in presence of NADPH; type: ADME, Microsome
[15] = Cmax in male Sprague-Dawley rat CSF at 1 mg/kg, iv measured upto 8 hrs by LC-MS/MS analysis; type: ADME, organism-based, Cerebrospinal fluid
[16] = AUClast in Wistar rat plasma at 5 mg/kg, po measured upto 48 hrs; type: ADME, organism-based
[17] = AUCinf in Wistar rat plasma at 1 mg/kg, iv measured upto 48 hrs; type: ADME, organism-based
[18] = Initial plasma concentration in beagle dog at 0.4 mg/kg, iv measured upto 24 hrs; type: ADME, organism-based, Canis lupus familiaris
[19] = Clearance in Wistar rat plasma at 1 mg/kg, iv measured upto 48 hrs; type: ADME, organism-based
[20] = AUCinf in Wistar rat brain at 1 mg/kg, iv measured upto 48 hrs; type: ADME, organism-based
[21] = target: 5-hydroxytryptamine receptor 2B (Homo sapiens, UniProt P41595); test: Agonist activity at human 5-HT2B receptor expressed in CHO cells assessed as maximal IP2 production measured after 30 mins incubation by HTRF assay relative to control; type: functional, cell-based; conditions: read-out: EC50
Hippocampus [22] = test: Induction of neuroplasticity in C57BL/6J mouse assessed as increase in IGF1 mRNA expression in brain hippocampus at 0.3 mg/kg, sc single dose by RT-PCR analysis; type: functional, organism-based
[23] = Ex vivo binding in C57BL/6J mouse brain frontal cortex assessed as specific binding [3H]Cimbi-36 at 1 mg/kg, sc measured after 5 mins by liquid scintillation counting analysis (reference value: 1092 +/- 53); type: functional
[24] = Tmax in Wistar rat plasma at 5 mg/kg, po measured upto 48 hrs; type: ADME, organism-based
[25] = Metabolic stability in monkey liver S9 fractions assessed as half life; type: ADME, subcellular, Macaca fascicularis; conditions: cynomolgus monkey, liver S9 fraction
[26] = target: T2, 5-hydroxytryptamine receptor 7; test: Displacement of [3H]LSD from 5-HT7 receptor (unknown origin) assessed as inhibition binding at 10 uM relative to control
[27] = MRTinf in male Sprague-Dawley rat CSF at 1 mg/kg, iv measured upto 8 hrs by LC-MS/MS analysis; type: ADME, organism-based, Cerebrospinal fluid
Hippocampus [28] = test: Induction of neuroplasticity in C57BL/6J mouse assessed as increase in BDNF mRNA expression in brain hippocampus at 0.3 mg/kg, sc single dose by RT-PCR analysis; type: functional, organism-based
Mus musculus [29] = test: Induction of neuroplasticity in C57BL/6J mouse assessed as increase in c-Fos mRNA expression in brain frontal cortex at 3 mg/kg, sc single dose by RT-PCR analysis; type: functional, organism-based
Hippocampus [30] = test: Induction of neuroplasticity in C57BL/6J mouse assessed as increase in SYN1 mRNA expression in brain hippocampus at 0.3 mg/kg, sc single dose by RT-PCR analysis; type: functional, organism-based
[31] = CSF to plasma ratio in male Sprague-Dawley rat at 1 mg/kg, iv measured upto 8 hrs by LC-MS/MS analysis; type: ADME, organism-based; conditions: CSF and plasma
[32] = Initial plasma concentration in male Sprague-Dawley rat at 1 mg/kg, iv measured upto 8 hrs by LC-MS/MS analysis; type: ADME, organism-based
[33] = Drug metabolism in rat hepatocytes assessed as formation of sulfoxide metabolites at 10 uM by HRAMS analysis; type: ADME, cell-based, Hepatocyte
[34] = AUClast in male Sprague-Dawley rat plasma at 1 mg/kg, iv measured upto 8 hrs by LC-MS/MS analysis; type: ADME, organism-based
Mus musculus [35] = test: Psychedelic effect in C57BL/6J mouse assessed as number of head-twitch responses by visual observation at 3 mg/kg, po measured for 3 mins at 5 to 25 min; type: functional; conditions: 0.05 h
[36] = Metabolic stability in rat hepatocytes assessed as half life at 10 uM; type: ADME, cell-based, Hepatocyte
[37] = Ex vivo binding in C57BL/6J mouse brain frontal cortex assessed as inhibition of [3H]Cimbi-36 binding at 1 mg/kg, sc measured after 300 mins by liquid scintillation counting analysis (reference value: 0%); type: functional; conditions: 5 h
[38] = AUCinf in Wistar rat brain at 5 mg/kg, po measured upto 48 hrs; type: ADME, organism-based
[39] = Half life in Wistar rat plasma at 1 mg/kg, iv measured upto 48 hrs; type: ADME, organism-based

T1 sequence (P08913 whole entry): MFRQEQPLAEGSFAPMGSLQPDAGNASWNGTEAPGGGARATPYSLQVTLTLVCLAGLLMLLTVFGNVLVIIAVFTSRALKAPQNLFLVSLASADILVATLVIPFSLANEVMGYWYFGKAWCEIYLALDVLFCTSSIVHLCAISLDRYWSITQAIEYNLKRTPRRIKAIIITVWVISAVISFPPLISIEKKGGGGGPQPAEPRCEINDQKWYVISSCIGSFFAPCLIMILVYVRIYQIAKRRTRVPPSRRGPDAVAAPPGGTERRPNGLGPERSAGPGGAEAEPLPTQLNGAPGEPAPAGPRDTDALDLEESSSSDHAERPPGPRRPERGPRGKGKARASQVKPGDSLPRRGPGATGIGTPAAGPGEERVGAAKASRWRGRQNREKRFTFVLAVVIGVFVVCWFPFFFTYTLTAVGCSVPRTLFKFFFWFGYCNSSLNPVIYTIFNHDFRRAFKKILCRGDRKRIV
T2 sequence (P34969 whole entry): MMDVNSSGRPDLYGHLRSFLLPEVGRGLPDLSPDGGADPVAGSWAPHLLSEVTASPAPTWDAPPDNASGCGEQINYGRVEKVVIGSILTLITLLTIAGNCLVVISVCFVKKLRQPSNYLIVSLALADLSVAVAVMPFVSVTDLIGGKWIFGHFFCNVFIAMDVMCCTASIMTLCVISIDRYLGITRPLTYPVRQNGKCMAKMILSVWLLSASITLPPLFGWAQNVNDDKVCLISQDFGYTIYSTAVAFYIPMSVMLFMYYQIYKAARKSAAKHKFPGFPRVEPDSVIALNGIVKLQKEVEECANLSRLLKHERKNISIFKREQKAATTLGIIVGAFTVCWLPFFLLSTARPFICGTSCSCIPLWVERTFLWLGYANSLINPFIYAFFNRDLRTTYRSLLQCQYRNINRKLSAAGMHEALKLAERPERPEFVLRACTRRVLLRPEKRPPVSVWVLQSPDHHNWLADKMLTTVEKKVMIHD
Muscarinic acetylcholine receptor M1 (Homo sapiens), sequence (P11229 whole entry): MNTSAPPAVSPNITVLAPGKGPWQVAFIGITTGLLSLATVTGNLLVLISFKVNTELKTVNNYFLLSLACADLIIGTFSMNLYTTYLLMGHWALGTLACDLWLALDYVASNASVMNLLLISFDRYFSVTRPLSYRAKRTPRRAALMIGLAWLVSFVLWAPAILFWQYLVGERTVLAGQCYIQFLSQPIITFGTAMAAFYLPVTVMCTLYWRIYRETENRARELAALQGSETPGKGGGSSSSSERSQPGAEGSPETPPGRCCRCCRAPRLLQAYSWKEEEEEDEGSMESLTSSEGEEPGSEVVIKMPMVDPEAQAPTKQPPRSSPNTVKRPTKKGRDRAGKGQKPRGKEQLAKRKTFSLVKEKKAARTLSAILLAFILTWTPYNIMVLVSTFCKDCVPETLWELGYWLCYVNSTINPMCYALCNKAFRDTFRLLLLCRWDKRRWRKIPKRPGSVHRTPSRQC
5-hydroxytryptamine receptor 2B, sequence (P41595 whole entry): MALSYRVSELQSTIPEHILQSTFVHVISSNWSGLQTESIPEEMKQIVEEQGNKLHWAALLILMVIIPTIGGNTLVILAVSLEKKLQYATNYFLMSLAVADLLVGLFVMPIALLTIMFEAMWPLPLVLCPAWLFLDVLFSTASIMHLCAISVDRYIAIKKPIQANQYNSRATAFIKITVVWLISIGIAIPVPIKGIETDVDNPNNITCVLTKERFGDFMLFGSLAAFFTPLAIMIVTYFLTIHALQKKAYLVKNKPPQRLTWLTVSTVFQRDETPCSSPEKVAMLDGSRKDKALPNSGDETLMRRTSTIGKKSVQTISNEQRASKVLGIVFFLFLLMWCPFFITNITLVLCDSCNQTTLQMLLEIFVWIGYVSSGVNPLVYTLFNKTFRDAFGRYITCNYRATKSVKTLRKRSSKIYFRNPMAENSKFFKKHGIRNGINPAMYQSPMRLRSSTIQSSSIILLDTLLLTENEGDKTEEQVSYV
Alpha-2A adrenergic receptor (Homo sapiens), sequence (P08913 whole entry): as the sequence (P08913 whole entry) above

**Q.** With COc1cc([Se]C(F)(F)F)c(OC)cc1CCN.Cl as the molecule, how does the Ratio Ki (Homo sapiens) read?
**A.** 19

**Q.** And the Activity (Hippocampus [1])?
**A.** inactive

**Q.** And the Tmax [2]?
**A.** 2 h

**Q.** And the EC50 [3]?
**A.** 126 nM

**Q.** And the inhibition [4]?
**A.** 88%

**Q.** And the Activity (Brain)?
**A.** > 98%

**Q.** What about the Tmax [5] of the same molecule?
**A.** 4.98 min

**Q.** And the Ki [6]?
**A.** 72 nM

**Q.** What about the Activity (Hippocampus [7]) of the same molecule?
**A.** inactive

**Q.** And the Ki [8]?
**A.** 4.92 µM

**Q.** And the dose excreted at 48 h [9]?
**A.** 0.3%

**Q.** And the Emax [10]?
**A.** 56%

**Q.** What about the Activity (Mus musculus [11]) of the same molecule?
**A.** Active

**Q.** What about the half-life [12] of the same molecule?
**A.** 259 min

**Q.** What about the half-life [13] of the same molecule?
**A.** 75.6 min

**Q.** What about the half-life at 1 µM [14] of the same molecule?
**A.** > 120 min

**Q.** And the Cmax [15]?
**A.** 48.7 ng/mL

**Q.** And the AUC(0-t) at 48 h [16]?
**A.** 40.3 ng·h/mL

**Q.** What about the AUC(0-inf) [17] of the same molecule?
**A.** 50.7 ng·h/mL

**Q.** What about the C0 at 24 h [18] of the same molecule?
**A.** 121 ng/mL

**Q.** And the clearance [19]?
**A.** 328 mL/min/kg

**Q.** What about the AUC(0-inf) [20] of the same molecule?
**A.** 3260 ng·h/mL

**Q.** What about the EC50 [21] of the same molecule?
**A.** 7.3 nM

**Q.** And the Activity (Hippocampus [22])?
**A.** inactive

**Q.** What about the Activity [23] of the same molecule?
**A.** 947

**Q.** And the Tmax [24]?
**A.** 30 min

**Q.** What about the half-life [25] of the same molecule?
**A.** 38 min

**Q.** What about the inhibition [26] of the same molecule?
**A.** 86%

**Q.** What about the MRT inf [27] of the same molecule?
**A.** 1.51 h

**Q.** What about the Activity (Hippocampus [28]) of the same molecule?
**A.** inactive

**Q.** And the Activity (Mus musculus [29])?
**A.** Active

**Q.** What about the Activity (Hippocampus [30]) of the same molecule?
**A.** inactive

**Q.** And the Kp at 8 h [31]?
**A.** 0.2

**Q.** What about the C0 at 8 h [32] of the same molecule?
**A.** 330 ng/mL

**Q.** And the Drug metabolism [33]?
**A.** Metabolite_Detected

**Q.** And the AUC(0-t) at 8 h [34]?
**A.** 207 ng·h/mL

**Q.** And the Activity (Mus musculus [35])?
**A.** 25

**Q.** And the half-life at 10 µM [36]?
**A.** 960 min

**Q.** What about the inhibition in vivo at 1 mg/kg [37] of the same molecule?
**A.** 22%

**Q.** And the AUC(0-inf) [38]?
**A.** 2880 ng·h/mL

**Q.** And the half-life [39]?
**A.** 46.8 min
